# Values joined by “and” are separate entries in the source; they are usually repeats but may differ in a detail not shown here. Equal entries are not always repeated.
# Key:
# [1] = ingestion of 1,400 mg of sodium phytate (1,000 mg as phytic acid); cited from earlier work
# xanthine oxidase = conditions: Non-Patent Document 4, cited from earlier work
# [2] = target: T1, Phosphatase, Alkaline, Calf Intestine (Bos taurus, UniProt P19111); experiment: Alkaline phosphatase inhibition (IMP to inosine); format: biochemical; conditions: sample solution 10 mg/mL, pH 6.2 to 6.4, 37° C. 30 minutes
# T1 construct: purchased Merck
# T1 sequence (P19111 20-506): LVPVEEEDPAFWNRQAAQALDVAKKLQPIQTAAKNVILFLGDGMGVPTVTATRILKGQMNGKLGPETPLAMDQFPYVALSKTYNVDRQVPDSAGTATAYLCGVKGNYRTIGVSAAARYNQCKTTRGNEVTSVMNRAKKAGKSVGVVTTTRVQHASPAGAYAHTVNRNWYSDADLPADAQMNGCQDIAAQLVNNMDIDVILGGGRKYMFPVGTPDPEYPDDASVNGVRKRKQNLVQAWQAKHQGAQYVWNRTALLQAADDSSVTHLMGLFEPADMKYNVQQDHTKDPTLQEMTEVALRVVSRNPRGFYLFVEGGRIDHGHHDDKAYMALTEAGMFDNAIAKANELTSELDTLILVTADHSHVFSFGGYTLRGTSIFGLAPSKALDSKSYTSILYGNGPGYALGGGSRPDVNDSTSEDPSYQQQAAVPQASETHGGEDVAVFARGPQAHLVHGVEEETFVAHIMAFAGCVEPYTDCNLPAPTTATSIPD
# Method: Phosphatase, Alkaline, Calf Intestine (Merck) dissolved in the assay buffer (2.37% aqueous solution of Trizma® maleate (Sigma-Aldrich)) at 5.0 U/mL was used as the enzyme solution.
# Inosine monophosphate (IMP) (Sigma-Aldrich) dissolved in the assay buffer at 9 mM was used as the substrate solution.
# Phytic acid and the assay buffer were mixed, and the pH was adjusted to 6.2 to 6.4 with sodium hydroxide to obtain a sample solution (10 mg/mL). The control solution was prepared by adjusting the assay buffer to pH 6.2 to 6.4 with sodium hydroxide.
# (§1) Enzymatic reaction was performed using a 96 well plate (Thermo Fisher Scientific) in the following manner.
# The sample solution or control solution (100 μL/well), the substrate solution (100 μL/well), and the enzyme solution (100 μL/well) were added, and the enzyme reaction was performed at 37° C. for 30 minutes. A 20 μL aliquot of the reaction solution was transferred to multi-screen FITS HV (Merck Millipore), and the reaction was stopped by adding the stop solution (0.33 M HClO4, 180 μl/well). Centrifuge (1080×g for 10 minutes at room temperature) was performed, and the filtrate was subjected to high performance liquid chromatography (HPLC) to determine the amounts of inosine monophosphate and inosine.
# The analytical conditions of HPLC are shown below.
# Detector: SPD-M 30 A (Shimadzu Corporation) […]
# [3] = system: alkaline phosphatase and 5′nucleotidase (rat small intestine powder); experiment: Purine nucleotide metabolism inhibition (IMP to inosine) using rat small intestine powder; format: biochemical; conditions: pH 6.2 to 6.4, 37° C. 30 minutes
# Method: The rat small intestine powder contains alkaline phosphatase and 5′nucleotidase as the main digestive enzymes. The inhibition of metabolism of purine nucleotides to purine nucleosides by phytic acid was investigated.
# A 100 mg/mL of solution of rat small intestine powder (Clare Japan, Inc.) in the assay buffer (2.37% aqueous solution of Trizma® maleate (Sigma-Aldrich)) was used as the enzyme solution. Inosine monophosphate (IMP) (Sigma-Aldrich) (9 mM) in the assay buffer was used as the substrate solution.
# Phytic acid and the assay buffer were mixed, and the pH was adjusted to 6.2 to 6.4 with sodium hydroxide to obtain the sample solutions of each concentration. The control solution was prepared by adjusting the assay buffer to pH 6.2 to 6.4 with sodium hydroxide.
# as §1
# The sample solution or control solution (100 μL/well), the substrate solution (100 μL/well), and the enzyme solution (100 μL/well) were added, and the enzyme reaction was performed at 37° C. for 30 minutes. A 20 μL aliquot of the reaction solution was transferred to multi-screen HTS HV (Merck Millipore), and the reaction was stopped by adding the stop solution (0.33 M HClO4, 180 μL/well). […]
# healthy adults [4] = experiment: High intake test (5 weeks, 3 to 5 bottles per day) in healthy adults; format: in vivo, human; conditions: for change in serum iron level: high intake test
# Method: The subjects (48 healthy adults: 20 to 65 years of age, 16 men, 16 premenopausal women, and 16 postmenopausal women) ingested 5 bottles per day (or 3 to 5 bottles per day depending on the subject's capacity) of test beverage. The test beverage contains 600 mg of phytic acid per bottle (50 mL). The duration of intake was 5 weeks. The first week being a time period to determine each subject's tolerable volume of test beverage, during which time the subjects ingested test beverages while increasing one bottle daily (Up to 5 bottles per day). If 5 bottles/day could not be taken due to taste, volume, etc., the intake volume was determined by each subject, and the intake volume on day 7 was taken as the tolerable volume for each subject, and each subject ingested this tolerable volume (3 to 5 bottles per day) during the remaining study period (4 weeks). Before and 3 weeks, 5 weeks, and 7 weeks (i.e. 2 weeks after the last intake) after the start of the intake, blood pressure of fasting was measured and blood of fasting was collected. The collected blood was measured for each test item by an analysis contractor. Tests for blood pressure, blood glucose, AST, and serum iron compared to 0 week were performed with a paired t-test, and tests for 1, 25-(OH)2-D compared to 0 week were performed with one-way ANOVA followed by Dunnet's multiple comparison method. A two-sided test was performed with a significance level of 5%. The analysis included 44 subjects excluding 2 subjects who withdrew their consent and 2 subjects who were unable to take more than 3 bottles of the test beverage.
# healthy adults [5] = experiment: Low intake test (12 weeks, 1 bottle per day) in healthy adults; format: in vivo, human; conditions: for change in serum iron level: low intake test
# Method: Subjects (39 healthy adults: 20 to 65 years of age, 13 men, premenopausal women, and 13 postmenopausal women) ingested 1 bottle of a test beverage per day for 12 weeks. The test beverage contains 600 mg of phytic acid per bottle (50 mL). Before and 4 weeks, 8 weeks, 12 weeks, and 14 weeks (i.e. 2 weeks after the last intake) after the start of the intake, blood of fasting was collected. The collected blood was measured for each test item by an analysis contractor. Tests for each endpoint compared to 0 week were performed with a paired t-test. Two-sided test was performed with a significance level of 5%.
smiles,measurement,setting,value
O=P([O-])([O-])O[C@H]1[C@H](OP(=O)([O-])O)[C@H](OP(=O)([O-])[O-])[C@H](OP(=O)([O-])O)[C@@H](OP(=O)([O-])[O-])[C@@H]1OP(=O)([O-])O.[Na+].[Na+].[Na+].[Na+].[Na+].[Na+].[Na+].[Na+].[Na+] [sodium phytate],blood phytic acid concentration at the maximum,[1],0.12 mg/L and 0.181 μM
O=P(O)(O)O[C@H]1[C@H](OP(=O)(O)O)[C@@H](OP(=O)(O)O)[C@H](OP(=O)(O)O)[C@@H](OP(=O)(O)O)[C@H]1OP(=O)(O)O [phytic acid],IC50 of inhibition of xanthine oxidase activity (conversion of xanthine to uric acid),xanthine oxidase,~19.8 mg/mL
same,IC50,xanthine oxidase; read-out: IC50 of inhibition of xanthine oxidase activity (conversion of xanthine to uric acid),~30 mM
same,inhibition of metabolism of inosine monophosphate to inosine by alkaline phosphatase,[2],inhibits the conversion of purine nucleotides into purine nucleosides
same,inhibition of metabolism of inosine monophosphate to inosine,[3],inhibits the conversion of purine nucleotides into purine nucleosides
same,"change in 1,25-(OH)2-D level",healthy adults [4]; 5 weeks after ingestion compared with before ingestion,significant increase
same,change in diastolic blood pressure,healthy adults [4]; high diastolic blood pressure group (86.3 or more at 0 week),significant decrease
same,change in serum iron level,healthy adults [4]; high level group (117 or more at 0 week),significant decreases
same,change in serum iron level,healthy adults [4]; low level group (79 or less at 0 week),significant rises
same,change in serum iron level,healthy adults [4]; middle level group (79 to 117 at 0 week),no large changes
same,change in AST level,"healthy adults [4]; high level group (21 or more at 0 week), 3, 5, and 7 weeks compared with before ingestion",significant decreases
same,change in systolic blood pressure,healthy adults [4]; high systolic blood pressure group (126 or more at 0 week),significant decrease
same,change in diastolic blood pressure,healthy adults [4]; low diastolic blood pressure group (73.8 or less at 0 week),no change
same,change in AST level,"healthy adults [4]; low level group (17 or less at 0 week), 3 weeks compared with before ingestion, change not large",significant increase
same,change in systolic blood pressure,healthy adults [4]; low systolic blood pressure group (115.5 or less at 0 week),no change
same,change in diastolic blood pressure,healthy adults [4]; middle diastolic blood pressure group (73.8 to 86.3 at 0 week),no change
same,change in systolic blood pressure,healthy adults [4]; middle systolic blood pressure group (115.5 to 126 at 0 week),significant change but it was not large
same,change in HbA1c level,healthy adults [5]; high HbA1c level group (5.5 or more at 0 week),significant decrease
same,change in blood glucose level,healthy adults [5]; high blood glucose level group (86 or more at 0 week),significant decrease
same,change in serum iron level,healthy adults [5]; high level group (132 or more at 0 week),significant decreases
same,change in serum iron level,healthy adults [5]; low level group (90 or less at 0 week),significant rises
same,change in serum iron level,healthy adults [5]; middle level group (90 to 132 at 0 week),no large changes
